# Assay results reported in patent US20160151337A1, “ANNELATED PYRROLES AND THEIR USE AS CRAC INHIBITORS” (Grünenthal GmbH, priority 2013, published 2016).
# Target: T1, CRAC channel (Homo sapiens, UniProt Q96D31)
# T1 construct: endogenous in cells; host or cells: HEK293 (ECACC), untransfected
# Assay: HEK Calcium Influx Assay (FLIPR), inhibition of store-operated Ca2+ entry after thapsigargin store depletion
# Format: cell-based
# Conditions: 10 μM compound, HEK293 cells, read-out: % inhib. [@ 10 μM] FLIPR
# Procedure: The effect of compounds of the invention on intracellular [Ca^2+] was tested in the HEK293 cell line (ECACC).
# HEK293 cells were cultured in DMEM/F12/Glutamax (Gibco) containing 10% FCS (Gibco), and maintained at 37° C., 5% CO2. Cell were split twice a week [3*10^6 (Mon-Thu) and 1*10^6 (Thu-Mon) cells/50 ml medium in 1-175 ZK culture flasks, respectively]. Twenty four hours pre-experiment, cells were seeded on 96 well plates (Poly-D-Lysine 96 well Black/Clear Plate, BD Biocoat REF 356640) at a density of 40,000 cells/well in DMEM/F12 (Gibco) containing 10% FCS (Gibco), and maintained at 37° C., 5% CO2.
# Prior to store-depletion, cell culture medium was removed and cells were loaded with the Calcium-sensitive fluorescent dye comprised within the Calcium-4-assay kit (Molecular Devices) in nominally Ca^2+-free HBS buffer (140 mM NaCl, 4 mM KCl, 0.2 mM MgCl2, 11 mM D-glucose, and 10 mM HEPES, pH 7.4) according to manufacturer's instruction for 60 min at 37° C., 5% CO2.
# Passive depletion of intracellular Ca^2+-stores was then triggered by employing the SERCA inhibitor thapsigargin (2 μM final) for 10 min in the dark (RT). To prevent immediate Ca^2+-entry via the activated store-operated channels (SOCs), cells were maintained in Ca^2+-free HBS buffer comprising 100 μM EGTA during store-depletion.
# Intracellular changes in [Ca^2+] were subsequently monitored with the FLIPR device (Molecular Devices). In brief, baseline imaging post-store depletion was allowed for 1 min before adjusting the extracellular buffer to 3 mM CaCl2. Increases in intracellular [Ca^2+] due to pre-activated SOC channels were monitored for 15 min until intracellular Ca^2+ levels had declined into a steady-state. Finally, compounds were administered, and Ca^2+ signals were recorded for additional 10 min.
# Inhibition of endogenous SOC in HEK293 cells was quantified employing the average Ca^2+ signal measured from 9.5-10 min post-administration. Zero percent inhibition (MAX) was defined as the Ca^2+ signal recorded from wells to which DMSO-only had been added instead of compound. Hundred percent inhibition (MIN) was defined as the signal obtained from wells in which cells haven't been treated with TG prior to Ca^2+ addition and to which DMSO-only had been added instead of compound. For routine IC50 determinations of compounds, 8 concentrations of a serial dilution (1:3.16) were tested, starting off from 10 μM. Reliable IC50's could consequently be determined only, if they were at least sub 2.5-3 μM.
# T1 sequence (Q96D31 whole entry): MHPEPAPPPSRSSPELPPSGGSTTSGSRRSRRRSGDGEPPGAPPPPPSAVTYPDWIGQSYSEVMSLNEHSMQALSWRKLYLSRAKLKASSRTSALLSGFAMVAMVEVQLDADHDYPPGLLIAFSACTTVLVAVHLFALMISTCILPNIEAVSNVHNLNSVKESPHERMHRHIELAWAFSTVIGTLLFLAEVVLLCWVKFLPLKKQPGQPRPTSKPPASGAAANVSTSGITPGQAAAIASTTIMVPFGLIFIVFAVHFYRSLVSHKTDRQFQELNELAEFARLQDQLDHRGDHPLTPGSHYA
row,inhibition at 10 µM,SMILES
1,> 70%,"Cc1sc(C2CC2)nc1N1CCc2[nH]c(-c3c(F)cccc3F)cc2C1=O [Example 48, 5-(2-Cyclopropyl-5-methyl-thiazol-4-yl)-2-(2,6-difluoro-phenyl)-1,5,6,7-tetrahydro-pyrrolo[3,2-c]pyridin-4-one]"
2,> 70%,"Cc1sc(C2CC2)nc1N1CCc2[nH]c(-c3c(F)cccc3Cl)cc2C1=O [Example 52, 2-(2-Chloro-6-fluoro-phenyl)-5-(2-cyclopropyl-5-methyl-thiazol-4-yl)-1,5,6,7-tetrahydro-pyrrolo[3,2-c]pyridin-4-one]"
3,> 70%,"Cc1sc(-c2ncco2)nc1N1CCc2[nH]c(-c3c(F)cccc3Cl)cc2C1=O [Example 53, 2-(2-Chloro-6-fluoro-phenyl)-5-(5-methyl-2-oxazol-2-yl-thiazol-4-yl)-1,5,6,7-tetrahydro-pyrrolo[3,2-c]pyridin-4-one]"
4,> 70%,"Cc1sc(-c2cccnc2)nc1N1CCc2[nH]c(-c3c(F)cccc3Cl)cc2C1 [Example 17, 4-[2-(2-Chloro-6-fluoro-phenyl)-4,5,6,7-tetrahydro-1H-pyrrolo[3,2-c]pyridin-5-yl]-5-methyl-2-pyridin-3-yl-thiazole]"
5,> 70%,"Cc1sc(-c2cccnc2)nc1N1CCc2[nH]c(-c3c(F)cccc3Cl)cc2C1=O [Example 42, 2-(2-Chloro-6-fluoro-phenyl)-5-(5-methyl-2-pyridin-3-yl-thiazol-4-yl)-1,5,6,7-tetrahydro-pyrrolo[3,2-c]pyridin-4-one]"
6,> 70%,"Cc1sc(-c2cccnc2)nc1N1CCc2[nH]c(-c3c(F)cccc3F)c(CO)c2C1 [Example 85, [2-(2,6-Difluoro-phenyl)-5-(5-methyl-2-pyridin-3-yl-thiazol-4-yl)-4,5,6,7-tetrahydro-1H-pyrrolo[3,2-c]pyridin-3-yl]-methanol]"
7,50 to 70%,"Cc1cc(Cl)ncc1N1CCc2[nH]c(-c3ccc(F)cc3F)cc2C1=O [Example 44, 5-(6-Chloro-4-methyl-pyridin-3-yl)-2-(2,4-difluoro-phenyl)-1,5,6,7-tetrahydro-pyrrolo[3,2-c]pyridin-4-one]"
8,50 to 70%,"Cc1sc(-c2cccnc2)nc1N1CCc2[nH]c(-c3ccc(Cl)nc3)cc2C1=O [Example 43, 2-(6-Chloro-pyridin-3-yl)-5-(5-methyl-2-pyridin-3-yl-thiazol-4-yl)-1,5,6,7-tetrahydro-pyrrolo[3,2-c]pyridin-4-one]"
9,> 70%,"Cc1sc(-c2ncco2)nc1N1CCc2[nH]c(-c3c(F)cccc3F)cc2C1=O [Example 54, 2-(2,6-Difluoro-phenyl)-5-(5-methyl-2-oxazol-2-yl-thiazol-4-yl)-1,5,6,7-tetrahydro-pyrrolo[3,2-c]pyridin-4-one]"

# More lines, now with the values behind:
row,SMILES,inhibition at 10 µM
1,"Cc1sc(C2CC2)nc1N1CCc2[nH]c(-c3c(F)cccc3F)cc2C1 [Example 56, 2-Cyclopropyl-4-[2-(2,6-difluoro-phenyl)-4,5,6,7-tetrahydro-1H-pyrrolo[3,2-c]pyridin-5-yl]-5-methyl-thiazole]",> 70%
2,"Cc1cc(S(C)(=O)=O)ncc1N1CCc2[nH]c(-c3snnc3C)cc2C1 [Example 89, 4-Methyl-5-[5-(4-methyl-6-methylsulfonyl-pyridin-3-yl)-4,5,6,7-tetrahydro-1H-pyrrolo[3,2-c]pyridin-2-yl]-[1,2,3]thiadiazole]",50 to 70%
3,"Cc1sccc1N1CCc2[nH]c(-c3c(F)cccc3F)cc2C1=O [Example 47, 2-(2,6-Difluoro-phenyl)-5-(2-methyl-thiophen-3-yl)-1,5,6,7-tetrahydro-pyrrolo[3,2-c]pyridin-4-one]",> 70%
4,"Cc1c(F)cncc1N1CCc2[nH]c(-c3c(F)cccc3F)cc2C1 [Example 94, 2-(2,6-Difluoro-phenyl)-5-(5-fluoro-4-methyl-pyridin-3-yl)-4,5,6,7-tetrahydro-1H-pyrrolo[3,2-c]pyridine]",> 70%
5,"COc1cnc(C(F)(F)F)nc1N1CCc2[nH]c(-c3c(F)cccc3F)cc2C1 [Example 84, 2-(2,6-Difluoro-phenyl)-5-[5-methoxy-2-(trifluoromethyl)-pyrimidin-4-yl]-4,5,6,7-tetrahydro-1H-pyrrolo[3,2-c]pyridine]",50 to 70%
6,"Cc1sccc1N1CCc2[nH]c(-c3c(F)cccc3Cl)cc2C1=O [Example 51, 2-(2-Chloro-6-fluoro-phenyl)-5-(2-methyl-thiophen-3-yl)-1,5,6,7-tetrahydro-pyrrolo[3,2-c]pyridin-4-one]",> 70%
7,"CCn1nc(N2CCc3[nH]c(-c4c(F)cccc4F)cc3C2)cc1C1(C(F)(F)F)CC1 [Example 125, 2-(2,6-Difluoro-phenyl)-5-[1-ethyl-5-[1-(trifluoromethyl)-cyclopropyl]-1H-pyrazol-3-yl]-4,5,6,7-tetrahydro-1H-pyrrolo[3,2-c]pyridine]",> 70%
8,"COc1cc(C#N)ccc1N1CCc2[nH]c(-c3c(F)cccc3Cl)cc2C1=O [Example 41, 4-[2-(2-Chloro-6-fluoro-phenyl)-4-oxo-1,5,6,7-tetrahydro-pyrrolo[3,2-c]pyridin-5-yl]-3-methoxy-benzonitrile]",50 to 70%
9,"O=C1c2cc(-c3c(F)cccc3F)[nH]c2CCN1c1c(F)cccc1F [Example 46, 2,5-Bis(2,6-difluoro-phenyl)-1,5,6,7-tetrahydro-pyrrolo[3,2-c]pyridin-4-one]",50 to 70%
10,"Cc1ccc(Cl)cc1N1CCc2[nH]c(-c3c(F)cccc3Cl)cc2C1=O [Example 50, 2-(2-Chloro-6-fluoro-phenyl)-5-(5-chloro-2-methyl-phenyl)-1,5,6,7-tetrahydro-pyrrolo[3,2-c]pyridin-4-one]",50 to 70%
11,"Cc1sc(-c2ncco2)nc1N1CCc2[nH]c(-c3c(F)cccc3F)cc2C1 [Example 57, 2-[4-[2-(2,6-Difluoro-phenyl)-4,5,6,7-tetrahydro-1H-pyrrolo[3,2-c]pyridin-5-yl]-5-methyl-thiazol-2-yl]-oxazole]",> 70%
12,"CNC(=O)c1ccc(N2CCc3[nH]c(-c4c(F)cccc4F)cc3C2)c(C)c1 [Example 80, 4-[2-(2,6-Difluoro-phenyl)-4,5,6,7-tetrahydro-1H-pyrrolo[3,2-c]pyridin-5-yl]-N,3-dimethyl-benzamide]",> 70%
13,"O=C1c2cc(-c3c(F)cccc3Cl)[nH]c2CCN1c1c(F)cccc1F [Example 49, 2-(2-Chloro-6-fluoro-phenyl)-5-(2,6-difluoro-phenyl)-1,5,6,7-tetrahydro-pyrrolo[3,2-c]pyridin-4-one]",> 70%
14,"Cc1cc(N)ncc1N1CCc2[nH]c(-c3c(F)cccc3F)cc2C1 [Example 95, [5-[2-(2,6-Difluoro-phenyl)-4,5,6,7-tetrahydro-1H-pyrrolo[3,2-c]pyridin-5-yl]-4-methyl-pyridin-2-yl]-amine]",> 70%
15,"Cc1cc(N2CCc3[nH]c(-c4c(F)cccc4Cl)cc3C2)n(C)n1 [Example 63, 2-(2-Chloro-6-fluoro-phenyl)-5-(2,5-dimethyl-2H-pyrazol-3-yl)-4,5,6,7-tetrahydro-1H-pyrrolo[3,2-c]pyridine]",> 70%
16,"Cc1sc(C2CC2)nc1N1CCc2[nH]c(-c3c(F)cccc3Cl)cc2C1 [Example 61, 4-[2-(2-Chloro-6-fluoro-phenyl)-4,5,6,7-tetrahydro-1H-pyrrolo[3,2-c]pyridin-5-yl]-2-cyclopropyl-5-methyl-thiazole]",> 70%
